Tests used:
LOX IMVI = experiment: NCI-60 anticancer screening (SRB); format: cell-based; settings: Homo sapiens, melanoma, one dose 10 μM, read-out: Growth Inhibition Percentage (GI %)
PC-3 = experiment: NCI-60 anticancer screening (SRB); format: cell-based; settings: Homo sapiens; PC-3, prostate cancer; one dose 10 μM; read-out: Growth Inhibition Percentage (GI %)
HCT-116 = experiment: NCI-60 anticancer screening (SRB); format: cell-based; settings: Homo sapiens; HCT-116, colon cancer; one dose 10 μM; read-out: Growth Inhibition Percentage (GI %)
IGROV1 = experiment: NCI-60 anticancer screening (SRB); format: cell-based; settings: Homo sapiens, IGROV-1; IGROV1, ovarian cancer; one dose 10 μM; read-out: Growth Inhibition Percentage (GI %)
NCI-H226 = experiment: NCI-60 anticancer screening (SRB); format: cell-based; settings: Homo sapiens; NCI-H226, NSC lung cancer; one dose 10 μM; read-out: Growth Inhibition Percentage (GI %)
SW-620 = experiment: NCI-60 anticancer screening (SRB); format: cell-based; settings: Homo sapiens; SW-620, colon cancer; one dose 10 μM; read-out: Growth Inhibition Percentage (GI %)
SK-OV-3 = experiment: NCI-60 anticancer screening (SRB); format: cell-based; settings: Homo sapiens; SK-OV-3, ovarian cancer; one dose 10 μM; read-out: Growth Inhibition Percentage (GI %)
MCF7 = experiment: NCI-60 anticancer screening (SRB); format: cell-based; settings: Homo sapiens; MCF7, breast cancer; one dose 10 μM; read-out: Growth Inhibition Percentage (GI %)
SF-268 = experiment: NCI-60 anticancer screening (SRB); format: cell-based; settings: Homo sapiens; SF-268, CNS cancer; one dose 10 μM; read-out: Growth Inhibition Percentage (GI %)
CCRF-CEM = experiment: NCI-60 anticancer screening (SRB); format: cell-based; settings: Homo sapiens, leukemia, one dose 10 μM, read-out: Growth Inhibition Percentage (GI %)
NCI/ADR-RES = experiment: NCI-60 anticancer screening (SRB); format: cell-based; settings: Homo sapiens, ovarian cancer, one dose 10 μM, read-out: Growth Inhibition Percentage (GI %)
NCI-H322M = experiment: NCI-60 anticancer screening (SRB); format: cell-based; settings: Homo sapiens, NSC lung cancer, one dose 10 μM, read-out: Growth Inhibition Percentage (GI %)
T-47D = experiment: NCI-60 anticancer screening (SRB); format: cell-based; settings: Homo sapiens, T47D, breast cancer, one dose 10 μM, read-out: Growth Inhibition Percentage (GI %)
HL-60(TB) = experiment: NCI-60 anticancer screening (SRB); format: cell-based; settings: Homo sapiens, leukemia, one dose 10 μM, read-out: Growth Inhibition Percentage (GI %)
M14 = experiment: NCI-60 anticancer screening (SRB); format: cell-based; settings: Homo sapiens; M14, melanoma; one dose 10 μM; read-out: Growth Inhibition Percentage (GI %)
MDA-MB-231 = experiment: NCI-60 anticancer screening (SRB); format: cell-based; settings: Homo sapiens; MDA-MB-231, breast cancer; one dose 10 μM; read-out: Growth Inhibition Percentage (GI %)
786-0 = experiment: NCI-60 anticancer screening (SRB); format: cell-based; settings: Homo sapiens; 786-0, renal cancer; one dose 10 μM; read-out: Growth Inhibition Percentage (GI %)
SNB-75 = experiment: NCI-60 anticancer screening (SRB); format: cell-based; settings: Homo sapiens; SNB-75, CNS cancer; one dose 10 μM; read-out: Growth Inhibition Percentage (GI %)
KM 12 = experiment: NCI-60 anticancer screening (SRB); format: cell-based; settings: Homo sapiens, KM12; KM 12, colon cancer; one dose 10 μM; read-out: Growth Inhibition Percentage (GI %)
TK-10 = experiment: NCI-60 anticancer screening (SRB); format: cell-based; settings: Homo sapiens; TK-10, renal cancer; one dose 10 μM; read-out: Growth Inhibition Percentage (GI %)
UACC-257 = experiment: NCI-60 anticancer screening (SRB); format: cell-based; settings: Homo sapiens; UACC-257, melanoma; one dose 10 μM; read-out: Growth Inhibition Percentage (GI %)
K-562 = experiment: NCI-60 anticancer screening (SRB); format: cell-based; settings: Homo sapiens, K562; K-562, leukemia; one dose 10 μM; read-out: Growth Inhibition Percentage (GI %)
RXF 393 = experiment: NCI-60 anticancer screening (SRB); format: cell-based; settings: Homo sapiens; RXF 393, renal cancer; one dose 10 μM; read-out: Growth Inhibition Percentage (GI %)
U251 = experiment: NCI-60 anticancer screening (SRB); format: cell-based; settings: Homo sapiens, U-251; U251, CNS cancer; one dose 10 μM; read-out: Growth Inhibition Percentage (GI %)
MDA-MB-468 = experiment: NCI-60 anticancer screening (SRB); format: cell-based; settings: Homo sapiens; MDA-MB-468, breast cancer; one dose 10 μM; read-out: Growth Inhibition Percentage (GI %)
BT-549 = experiment: NCI-60 anticancer screening (SRB); format: cell-based; settings: Homo sapiens; BT-549, breast cancer; one dose 10 μM; read-out: Growth Inhibition Percentage (GI %)
SR = experiment: NCI-60 anticancer screening (SRB); format: cell-based; settings: Homo sapiens, leukemia, one dose 10 μM, read-out: Growth Inhibition Percentage (GI %)
SK-MEL-2 = experiment: NCI-60 anticancer screening (SRB); format: cell-based; settings: Homo sapiens; SK-MEL-2, melanoma; one dose 10 μM; read-out: Growth Inhibition Percentage (GI %)
NCI 60 cancer cell lines = experiment: NCI-60 anticancer screening (SRB), whole panel; format: cell-based, human; settings: mean across the NCI-60 panel; one dose 10 μM
COLO 205 = experiment: NCI-60 anticancer screening (SRB); format: cell-based; settings: Homo sapiens; COLO 205, colon cancer; one dose 10 μM; read-out: Growth Inhibition Percentage (GI %)
HCT-15 = experiment: NCI-60 anticancer screening (SRB); format: cell-based; settings: Homo sapiens; HCT-15, colon cancer; one dose 10 μM; read-out: Growth Inhibition Percentage (GI %)
A498 = experiment: NCI-60 anticancer screening (SRB); format: cell-based; settings: Homo sapiens; A498, renal cancer; one dose 10 μM; read-out: Growth Inhibition Percentage (GI %)
OVCAR-5 = experiment: NCI-60 anticancer screening (SRB); format: cell-based; settings: Homo sapiens; OVCAR-5, ovarian cancer; one dose 10 μM; read-out: Growth Inhibition Percentage (GI %)

Compound	inhibition at 10 µM (LOX IMVI) [%]	inhibition at 10 µM (PC-3) [%]	inhibition at 10 µM (HCT-116) [%]	inhibition at 10 µM (IGROV1) [%]	inhibition at 10 µM (NCI-H226) [%]	inhibition at 10 µM (SW-620) [%]	inhibition at 10 µM (SK-OV-3) [%]	inhibition at 10 µM (MCF7) [%]	inhibition at 10 µM (SF-268) [%]	inhibition at 10 µM (CCRF-CEM) [%]	inhibition at 10 µM (NCI/ADR-RES) [%]	inhibition at 10 µM (NCI-H322M) [%]	inhibition at 10 µM (T-47D) [%]	inhibition at 10 µM (HL-60(TB)) [%]	inhibition at 10 µM (M14) [%]	inhibition at 10 µM (MDA-MB-231) [%]	inhibition at 10 µM (786-0) [%]	inhibition at 10 µM (SNB-75) [%]	inhibition at 10 µM (KM 12) [%]	inhibition at 10 µM (TK-10) [%]	further results
CCOC(=O)C1=C(N)N(c2ccc(Cl)cc2)C2=C(C(=O)CC(C)(C)C2)C1c1ccc([N+](=O)[O-])cc1 (racemic) [8k, (±)-Ethyl2-amino-1–(4-chlorophenyl)-7,7-dimethyl-4–(4-nitrophenyl)-5-oxo-1,4,5,6,7,8-hexahydroquinoline-3-carboxylate]	21	26	34	< 10	15	< 10	< 10	19	< 10	< 10	16	< 10	27	22	< 10	< 10	< 10	< 10	12	< 10	inhibition at 10 µM (UACC-257): < 10%; inhibition at 10 µM (K-562): 26%; inhibition at 10 µM (RXF 393): < 10%; inhibition at 10 µM (U251): < 10%; inhibition at 10 µM (MDA-MB-468): 18%; inhibition at 10 µM (BT-549): < 10%; inhibition at 10 µM (SR): 32%; inhibition at 10 µM (SK-MEL-2): 19%; GI % mean (NCI 60 cancer cell lines): - ((-) = GI % mean less than 10); inhibition at 10 µM (COLO 205): < 10%; inhibition at 10 µM (HCT-15): 18%; inhibition at 10 µM (A498): < 10%; inhibition at 10 µM (OVCAR-5): < 10%
CCOC(=O)C1=C(N)N(c2ccccc2)C2=C(C(=O)CC(C)(C)C2)C1c1ccc(N2CCOCC2)cc1 (racemic) [8l, (±)-Ethyl 2-amino-7,7-dimethyl-4-[4-(morpholin-4-yl)phenyl]-5-oxo-1-phenyl-1,4,5,6,7,8-hexahydroquinoline-3-carboxylate]	< 10	< 10	< 10	< 10	< 10	< 10	< 10	< 10	< 10	< 10	< 10	< 10	< 10	< 10	< 10	< 10	16	< 10	< 10	< 10	inhibition at 10 µM (UACC-257): < 10%; inhibition at 10 µM (K-562): < 10%; inhibition at 10 µM (RXF 393): < 10%; inhibition at 10 µM (U251): < 10%; inhibition at 10 µM (MDA-MB-468): < 10%; inhibition at 10 µM (BT-549): < 10%; inhibition at 10 µM (SR): 16%; inhibition at 10 µM (SK-MEL-2): < 10%; GI % mean (NCI 60 cancer cell lines): - ((-) = GI % mean less than 10); inhibition at 10 µM (COLO 205): < 10%; inhibition at 10 µM (HCT-15): < 10%; inhibition at 10 µM (A498): < 10%; inhibition at 10 µM (OVCAR-5): < 10%
CCOC(=O)C1=C(N)N(c2ccc(Cl)cc2)C2=C(C(=O)CC(C)(C)C2)C1c1ccc(N2CCOCC2)cc1 (racemic) [8m, (±)-Ethyl 2-amino-1–(4-chlorophenyl)-7,7-dimethyl-4-[4-(morpholin-4-yl)phenyl]-5-oxo-1,4,5,6,7,8-hexahydroquinoline-3-carboxylate]	< 10	< 10	< 10	< 10	< 10	< 10	< 10	< 10	< 10	< 10	< 10	< 10	< 10	< 10	< 10	13	11	< 10	< 10	< 10	inhibition at 10 µM (UACC-257): < 10%; inhibition at 10 µM (K-562): < 10%; inhibition at 10 µM (RXF 393): < 10%; inhibition at 10 µM (U251): 12%; inhibition at 10 µM (MDA-MB-468): 16%; inhibition at 10 µM (BT-549): 76%; inhibition at 10 µM (SR): < 10%; inhibition at 10 µM (SK-MEL-2): < 10%; GI % mean (NCI 60 cancer cell lines): - ((-) = GI % mean less than 10); inhibition at 10 µM (COLO 205): < 10%; inhibition at 10 µM (HCT-15): < 10%; inhibition at 10 µM (A498): < 10%; inhibition at 10 µM (OVCAR-5): < 10%

Source: publication PMC10408569, “Recruitment of hexahydroquinoline as anticancer scaffold targeting inhibition of wild and mutants EGFR (EGFR^WT, EGFR^T790M, and EGFR^L858R)” (Journal of Enzyme Inhibition and Medicinal Chemistry, 2023)
